# Data: patent US20110082130A1 (LIGAND PHARMACEUTICALS, INC., priority 2006, published 2011)
# Target: T1, chimeric human H3 receptor (Homo sapiens, UniProt Q9Y5N1)
# T1 construct: made in house; host or cells: Sf9 insect cells (baculovirus); P2 membrane preparation
# Test: Chimeric human H3 receptor screening GTP binding assay (inhibition of histamine-stimulated GTP-gamma35S binding, Example 8)
# Assay type: biochemical
# Conditions: 4 μM of the compound, 1 μM histamine, "†" in Ki of Table II, read-out: percent inhibition of the signal obtained with 1 μM histamine
# Procedure, shortened: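 Sf9 membranes co-expressing chimeric human H3 receptor and heterotrimeric G-protein, 35 μg per reaction, incubated 60 min at room temperature with 4 μM compound, 1 μM histamine, 10 μM GDP and […] GTP-gamma35S at pH 7.4. Filter-bound radioactivity counted. Result expressed as percent inhibition of the histamine signal after subtracting non-specific binding (10 μM GTP-gammaS).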
# T1 sequence (Q9Y5N1 with tags, fused parts or gaps): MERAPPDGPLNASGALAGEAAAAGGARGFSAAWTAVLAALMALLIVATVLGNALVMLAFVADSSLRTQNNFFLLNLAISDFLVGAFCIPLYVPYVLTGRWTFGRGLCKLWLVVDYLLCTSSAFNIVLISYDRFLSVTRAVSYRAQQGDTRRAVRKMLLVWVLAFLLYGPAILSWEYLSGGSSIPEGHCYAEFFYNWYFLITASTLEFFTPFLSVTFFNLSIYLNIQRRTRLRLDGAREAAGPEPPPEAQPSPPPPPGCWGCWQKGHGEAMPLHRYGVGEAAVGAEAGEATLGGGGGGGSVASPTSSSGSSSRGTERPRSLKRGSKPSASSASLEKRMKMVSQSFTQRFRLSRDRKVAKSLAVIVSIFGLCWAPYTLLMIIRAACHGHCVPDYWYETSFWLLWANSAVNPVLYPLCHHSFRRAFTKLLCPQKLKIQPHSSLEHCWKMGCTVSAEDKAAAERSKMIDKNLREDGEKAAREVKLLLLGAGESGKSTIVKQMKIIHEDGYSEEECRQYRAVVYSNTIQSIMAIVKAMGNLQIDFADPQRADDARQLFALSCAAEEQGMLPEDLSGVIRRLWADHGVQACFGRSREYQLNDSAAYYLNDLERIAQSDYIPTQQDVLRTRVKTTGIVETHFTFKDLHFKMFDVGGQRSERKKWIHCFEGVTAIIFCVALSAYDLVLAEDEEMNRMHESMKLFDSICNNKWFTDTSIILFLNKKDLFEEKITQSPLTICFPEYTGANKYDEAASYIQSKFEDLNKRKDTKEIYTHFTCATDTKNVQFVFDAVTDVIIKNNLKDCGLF
row,Structure (SMILES),inhibition at 4 µM
1,"O=C(CN1CCc2cc(-c3cccc4c3oc3ccccc34)ccc2C1)N1CCN(C2CCCCC2)CC1 [Compound 384, 2-[2-(4-cyclohexylpiperazin-1-yl)-2-oxoethyl]-6-dibenzo[b,d]furan-4-yl-1,2,3,4-tetrahydroisoquinoline]",≥ 90%
2,"Cc1ccc(-c2ccc3c(c2)CCN(CC(=O)N2CCN(C4CCC4)CC2)C3)cc1 [Compound 435, 2-[2-(4-cyclobutylpiperazin-1-yl)-2-oxoethyl]-6-(4-methylphenyl)-1,2,3,4-tetrahydroisoquinoline]",≥ 90%
3,"O=C(CN1CCc2cc(-c3cccc(Cl)c3)ccc2C1)N1CCN(C2CCCCC2)CC1 [Compound 403, 6-(3-chlorophenyl)-2-[2-(4-cyclohexylpiperazin-1-yl)-2-oxoethyl]-1,2,3,4-tetrahydroisoquinoline]",≥ 90%
4,"CC(C)N1CCN(C(=O)CN2CCc3cc(-c4ccc(OC(F)(F)F)cc4)ccc3C2)CC1 [Compound 481, 2-[2-(4-isopropylpiperazin-1-yl)-2-oxoethyl]-6-[4-(trifluoromethoxy)phenyl]-1,2,3,4-tetrahydroisoquinoline]",≥ 90%
5,"CC(C)c1ccc(-c2ccc3c(c2)CCN(CC(=O)N2CCN(C(C)C)CC2)C3)cc1 [Compound 446, 6-(4-isopropylphenyl)-2-[2-(4-isopropylpiperazin-1-yl)-2-oxoethyl]-1,2,3,4-tetrahydroisoquinoline]",≥ 90%
6,"Cc1ccc(-c2ccc3c(c2)CCN(CC(=O)N2CCN(C4CCCC4)CC2)C3)cc1C [Compound 448, 2-[2-(4-cyclopentylpiperazin-1-yl)-2-oxoethyl]-6-(3,4-dimethylphenyl)-1,2,3,4-tetrahydroisoquinoline]",≥ 90%
7,"O=C(CN1CCc2cc(-c3ccc(Cl)cc3)ccc2C1)N1CCN(C2CCCC2)CC1 [Compound 405, 6-(4-chlorophenyl)-2-[2-(4-cyclopentylpiperazin-1-yl)-2-oxoethyl]-1,2,3,4-tetrahydroisoquinoline]",≥ 90%
8,"CCCCc1ccc(-c2ccc3c(c2)CCN(CC(=O)N2CCN(C4CCCCC4)CC2)C3)cc1 [Compound 453, 6-(4-butylphenyl)-2-[2-(4-cyclohexylpiperazin-1-yl)-2-oxoethyl]-1,2,3,4-tetrahydroisoquinoline]",≥ 90%
9,"O=C(CN1CCc2cc(-c3ccccc3)ccc2C1)N1CCN(C2CCCC2)CC1 [Compound 399, 2-[2-(4-cyclopentylpiperazin-1-yl)-2-oxoethyl]-6-phenyl-1,2,3,4-tetrahydroisoquinoline]",≥ 90%
10,"Cc1cc(-c2ccc3c(c2)CCN(CC(=O)N2CCN(C4CCCCC4)CC2)C3)ccc1F [Compound 431, 2-[2-(4-cyclohexylpiperazin-1-yl)-2-oxoethyl]-6-(4-fluoro-3-methylphenyl)-1,2,3,4-tetrahydroisoquinoline]",≥ 90%
11,"Cc1cccc(-c2ccc3c(c2)CCN(CC(=O)N2CCN(C4CCC4)CC2)C3)c1 [Compound 432, 2-[2-(4-cyclobutylpiperazin-1-yl)-2-oxoethyl]-6-(3-methylphenyl)-1,2,3,4-tetrahydroisoquinoline]",≥ 90%
12,"Cc1ccc(F)c(-c2ccc3c(c2)CCN(CC(=O)N2CCN(C4CCC4)CC2)C3)c1 [Compound 423, 2-[2-(4-cyclobutylpiperazin-1-yl)-2-oxoethyl]-6-(2-fluoro-5-methylphenyl)-1,2,3,4-tetrahydroisoquinoline]",≥ 90%

# Same assay, conditions: Table II "Ki", symbol †, 4 μM of the compound, 1 μM histamine, read-out: percent inhibition of the signal obtained with 1 μM histamine
row,Structure (SMILES),inhibition at 4 µM
1,"CSc1cccc(-c2ccc3c(c2)CCN(CC(=O)N2CCN(C4CCC4)CC2)C3)c1 [Compound 494, 2-[2-(4-cyclobutylpiperazin-1-yl)-2-oxoethyl]-6-[3-(methylthio)phenyl]-1,2,3,4-tetrahydroisoquinoline]",≥ 90%
2,"CSc1cccc(-c2ccc3c(c2)CCN(CC(=O)N2CCN(C4CCCC4)CC2)C3)c1 [Compound 495, 2-[2-(4-cyclopentylpiperazin-1-yl)-2-oxoethyl]-6-[3-(methylthio)phenyl]-1,2,3,4-tetrahydroisoquinoline]",≥ 90%
3,"O=C(CN1CCc2cc(-c3ccc(F)c(F)c3)ccc2C1)N1CCN(C2CCCCC2)CC1 [Compound 591, 2-[2-(4-cyclohexylpiperazin-1-yl)-2-oxoethyl]-6-(3,4-difluorophenyl)-1,2,3,4-tetrahydroisoquinoline]",≥ 90%
4,"COc1ccc(F)cc1-c1ccc2c(c1)CCN(CC(=O)N1CCN(C3CCC3)CC1)C2 [Compound 570, 2-[2-(4-cyclobutylpiperazin-1-yl)-2-oxoethyl]-6-(5-fluoro-2-methoxyphenyl)-1,2,3,4-tetrahydroisoquinoline]",≥ 90%
5,"CC(C)N1CCN(C(=O)CN2CCc3cc(-c4cccc(F)c4F)ccc3C2)CC1 [Compound 602, 6-(2,3-difluorophenyl)-2-[2-(4-isopropylpiperazin-1-yl)-2-oxoethyl]-1,2,3,4-tetrahydroisoquinoline]",≥ 90%
6,"COc1ccc(-c2ccc3c(c2)CCN(CC(=O)N2CCN(C4CCCCC4)CC2)C3)cc1F [Compound 504, 2-[2-(4-cyclohexylpiperazin-1-yl)-2-oxoethyl]-6-(3-fluoro-4-methoxyphenyl)-1,2,3,4-tetrahydroisoquinoline]",≥ 90%
7,"COc1ccc(OC)c(-c2ccc3c(c2)CCN(CC(=O)N2CCN(C4CCCC4)CC2)C3)c1 [Compound 560, 2-[2-(4-cyclopentylpiperazin-1-yl)-2-oxoethyl]-6-(2,5-dimethoxyphenyl)-1,2,3,4-tetrahydroisoquinoline]",≥ 90%
8,"COc1ccc(-c2ccc(-c3ccc4c(c3)CCN(CC(=O)N3CCN(C5CCCCC5)CC3)C4)cc2)cc1 [Compound 500, 2-[2-(4-cyclohexylpiperazin-1-yl)-2-oxoethyl]-6-(4′-methoxybiphenyl-4-yl)-1,2,3,4-tetrahydroisoquinoline]",≥ 90%
9,"CC(C1CC1)N1CCN(C(=O)CN2CCc3cc(-c4cncnc4)ccc3C2)CC1 (stereo not drawn) [Compound 609, 2-{2-[4-(1-cyclopropylethyl)piperazin-1-yl]-2-oxoethyl}-6-pyrimidin-5-yl-1,2,3,4-tetrahydroisoquinoline]",≥ 90%
10,"C[C@H]1CN(C(=O)CN2CCc3cc(-c4cncnc4)ccc3C2)CCN1C1CCOCC1 [Compound 622, 2-{2-[(3S)-3-methyl-4-(tetrahydro-2H-pyran-4-yl)piperazin-1-yl]-2-oxoethyl}-6-pyrimidin-5-yl-1,2,3,4-tetrahydroisoquinoline]",≥ 90%
11,"CCCOCCNc1ccc2c(n1)CCN(CC(=O)N1CCN(C3CCC3)CC1)C2 [Compound 669, 6-[2-(4-cyclobutylpiperazin-1-yl)-2-oxoethyl]-N-(2-propoxyethyl)-5,6,7,8-tetrahydro-1,6-naphthyridin-2-amine]",≥ 90%
12,"CCOc1ccccc1-c1ccc2c(c1)CCN(CC(=O)N1CCN(C3CCCC3)CC1)C2 [Compound 567, 2-[2-(4-cyclopentylpiperazin-1-yl)-2-oxoethyl]-6-(2-ethoxyphenyl)-1,2,3,4-tetrahydroisoquinoline]",≥ 90%
13,"COc1ccc(-c2ccc3c(c2)CCN(CC(=O)N2CCN(C4CCCC4)CC2)C3)c(OC)c1 [Compound 564, 2-[2-(4-cyclopentylpiperazin-1-yl)-2-oxoethyl]-6-(2,4-dimethoxyphenyl)-1,2,3,4-tetrahydroisoquinoline]",≥ 90%
14,"O=C(CN1CCc2cc(-c3ccc(Oc4ccccc4)cc3)ccc2C1)N1CCN(C2CCCCC2)CC1 [Compound 488, 2-[2-(4-cyclohexylpiperazin-1-yl)-2-oxoethyl]-6-(4-phenoxyphenyl)-1,2,3,4-tetrahydroisoquinoline]",≥ 90%
15,"COc1ccccc1-c1ccc2c(c1)CCN(CC(=O)N1CCN(C3CCC3)CC1)C2 [Compound 551, 2-[2-(4-cyclobutylpiperazin-1-yl)-2-oxoethyl]-6-(2-methoxyphenyl)-1,2,3,4-tetrahydroisoquinoline]",≥ 90%
16,"COc1ccc(-c2ccc3c(c2)CCN(CC(=O)N2CCN(C4CCCCC4)CC2)C3)cc1C [Compound 542, 2-[2-(4-cyclohexylpiperazin-1-yl)-2-oxoethyl]-6-(4-methoxy-3-methylphenyl)-1,2,3,4-tetrahydroisoquinoline]",≥ 90%
17,"O=C(CN1CCc2cc(-c3cccc(OC(F)(F)F)c3)ccc2C1)N1CCN(C2CCCCC2)CC1 [Compound 492, 2-[2-(4-cyclohexylpiperazin-1-yl)-2-oxoethyl]-6-[3-(trifluoromethoxy)phenyl]-1,2,3,4-tetrahydroisoquinoline]",≥ 90%
18,"CC(C)N1CCN(C(=O)CN2CCc3cc(-c4cc(F)ccc4F)ccc3C2)CC1 [Compound 585, 6-(2,5-difluorophenyl)-2-[2-(4-isopropylpiperazin-1-yl)-2-oxoethyl]-1,2,3,4-tetrahydroisoquinoline]",≥ 90%
19,"COc1ccc2cc(-c3ccc4c(c3)CCN(CC(=O)N3CCN(C(C)C)CC3)C4)ccc2c1 [Compound 512, 2-[2-(4-isopropylpiperazin-1-yl)-2-oxoethyl]-6-(6-methoxy-2-naphthyl)-1,2,3,4-tetrahydroisoquinoline]",≥ 90%
20,"COc1ccc(Cl)cc1-c1ccc2c(c1)CCN(CC(=O)N1CCN(C3CCCCC3)CC1)C2 [Compound 558, 6-(5-chloro-2-methoxyphenyl)-2-[2-(4-cyclohexylpiperazin-1-yl)-2-oxoethyl]-1,2,3,4-tetrahydroisoquinoline]",≥ 90%
21,"COc1ccc(OC)c(-c2ccc3c(c2)CCN(CC(=O)N2CCN(C4CCC4)CC2)C3)c1 [Compound 559, 2-[2-(4-cyclobutylpiperazin-1-yl)-2-oxoethyl]-6-(2,5-dimethoxyphenyl)-1,2,3,4-tetrahydroisoquinoline]",≥ 90%
